Test results reported in PubChem BioAssay AID330 (DTP/NCI, 2004).
Where “and” joins values, the source holds several entries; their conditions need not be identical. Identical values can stand only once. Toxic doses and inconclusive results are not listed.

Test system: P388 leukemia ip, CD2F1 mice, survival T/C
Assay: NCI In Vivo Anticancer Drug Screen. Data for tumor model P388 Leukemia (intraperitoneal) in CD2F1 (CDF1) mice
Conditions: endpoint: median survival time, higher = longer survival
Method in brief: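 Mice carrying the transplanted tumor received test compound or vehicle. Survival was recorded in each group, and the value is the treated-group measurement divided by that of the vehicle-treated control group.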

[1] = dose: 60.0 mg/kg/injection, schedule: Q01DX005 (ip), vehicle: saline with Tween-80
[2] = dose: 120.0 mg/kg/injection, schedule: Q01DX005 (ip), vehicle: saline with Tween-80
[3] = dose: 240.0 mg/kg/injection, schedule: Q01DX005 (ip), vehicle: saline with Tween-80

Nc1ncnc2c1ncn2C1OC(COP(=O)(O)O)C(O)C1O (centres undefined)
T/C (dose: 12.5 mg/kg/injection, schedule: Q01DX009 (ip), vehicle: saline): 99 % of control | T/C (dose: 18.8 mg/kg/injection, schedule: Q03HX016 (ip), vehicle: saline): 123 % of control | T/C (dose: 18.8 mg/kg/injection, schedule: Q03HX024 (ip), vehicle: saline): 113 % of control | T/C (dose: 20.0 mg/kg/injection, schedule: Q01DX009 (ip), vehicle: water): 96 % of control | T/C (dose: 25.0 mg/kg/injection, schedule: Q01DX009 (ip), vehicle: saline): 102 % of control | T/C (dose: 25.0 mg/kg/injection, schedule: Q01DX009 (ip), vehicle: suspension in saline): 104 % of control | T/C (dose: 40.0 mg/kg/injection, schedule: Q01DX009 (ip), vehicle: water): 103 % of control and 105 % of control | T/C (dose: 50.0 mg/kg/injection, schedule: Q01DX005 (ip), vehicle: water): 101 % of control | T/C (dose: 50.0 mg/kg/injection, schedule: Q01DX005 (iv), vehicle: water): 102 % of control | T/C (dose: 50.0 mg/kg/injection, schedule: Q01DX009 (ip), vehicle: saline): 94 % of control and 98 % of control | T/C (dose: 50.0 mg/kg/injection, schedule: Q01DX009 (ip), vehicle: suspension in saline): 100 % of control | T/C (dose: 50.0 mg/kg/injection, schedule: Q01DX009 (ip), vehicle: water): 113 % of control | T/C (dose: 75.0 mg/kg/injection, schedule: Q03HX016 (ip), vehicle: saline): 152 % of control | T/C (dose: 75.0 mg/kg/injection, schedule: Q03HX024 (ip), vehicle: saline): 150 % of control | T/C (dose: 80.0 mg/kg/injection, schedule: Q01DX009 (ip), vehicle: water): 108 % of control and 116 % of control | T/C (dose: 90.0 mg/kg/injection, schedule: Q03HX024 (ip), vehicle: water): 122 % of control | T/C (dose: 100.0 mg/kg/injection, schedule: Q01DX005 (ip), vehicle: water): 122 % of control | T/C (dose: 100.0 mg/kg/injection, schedule: Q01DX005 (iv), vehicle: water): 104 % of control | T/C (dose: 100.0 mg/kg/injection, schedule: Q01DX009 (ip), vehicle: saline): 101 % of control and 96 % of control | T/C (dose: 100.0 mg/kg/injection, schedule: Q01DX009 (ip), vehicle: suspension in saline): 96 % of control | T/C (dose: 100.0 mg/kg/injection, schedule: Q01DX009 (oral), vehicle: water): 99 % of control | T/C (dose: 100.0 mg/kg/injection, schedule: Q03HX016 (ip), vehicle: saline): 156 % of control | T/C (dose: 100.0 mg/kg/injection, schedule: Q03HX016 (ip), vehicle: water): 160 % of control | T/C (dose: 100.0 mg/kg/injection, schedule: Q03HX024 (ip), vehicle: saline): 150 % of control | T/C (dose: 100.0 mg/kg/injection, schedule: Q03HX024 (ip), vehicle: water): 151 % of control | T/C (dose: 100.0 mg/kg/injection, schedule: Q04DX003 (ip), vehicle: water): 120 % of control | T/C (dose: 100.0 mg/kg/injection, schedule: Q08DX002 (ip), vehicle: water): 112 % of control | T/C (dose: 150.0 mg/kg/injection, schedule: Q03HX016 (ip), vehicle: saline): 167 % of control | T/C (dose: 150.0 mg/kg/injection, schedule: Q03HX024 (ip), vehicle: saline): 171 % of control | T/C (dose: 160.0 mg/kg/injection, schedule: Q01DX009 (ip), vehicle: water): 109 % of control | T/C (dose: 200.0 mg/kg/injection, schedule: Q01DX005 (iv), vehicle: water): 102 % of control | T/C (dose: 200.0 mg/kg/injection, schedule: Q01DX009 (ip), vehicle: saline): 92 % of control and 101 % of control | T/C (dose: 200.0 mg/kg/injection, schedule: Q01DX009 (ip), vehicle: suspension in saline): 106 % of control | T/C (dose: 200.0 mg/kg/injection, schedule: Q01DX009 (oral), vehicle: water): 104 % of control | T/C (dose: 200.0 mg/kg/injection, schedule: Q03HX016 (ip), vehicle: water): 183 % of control | T/C (dose: 200.0 mg/kg/injection, schedule: Q03HX024 (ip), vehicle: water): 186 % of control | T/C (dose: 200.0 mg/kg/injection, schedule: Q04DX003 (ip), vehicle: water): 121 % of control | T/C (dose: 200.0 mg/kg/injection, schedule: Q08DX002 (ip), vehicle: water): 113 % of control | T/C (dose: 400.0 mg/kg/injection, schedule: Q01DX005 (iv), vehicle: water): 106 % of control | T/C (dose: 400.0 mg/kg/injection, schedule: Q01DX009 (ip), vehicle: saline): 104 % of control | T/C (dose: 400.0 mg/kg/injection, schedule: Q01DX009 (ip), vehicle: water): 153 % of control | T/C (dose: 400.0 mg/kg/injection, schedule: Q03HX009 (oral), vehicle: water): 98 % of control | T/C (dose: 400.0 mg/kg/injection, schedule: Q03HX015 (oral), vehicle: water): 103 % of control | T/C (dose: 400.0 mg/kg/injection, schedule: Q03HX016 (ip), vehicle: water): 230 % of control | T/C (dose: 400.0 mg/kg/injection, schedule: Q03HX024 (ip), vehicle: water): 210 % of control | T/C (dose: 400.0 mg/kg/injection, schedule: Q04DX003 (ip), vehicle: water): 119 % of control | T/C (dose: 400.0 mg/kg/injection, schedule: Q08DX002 (ip), vehicle: water): 118 % of control | T/C (dose: 800.0 mg/kg/injection, schedule: Q01DX005 (ip), vehicle: water): 158 % of control | T/C (dose: 800.0 mg/kg/injection, schedule: Q01DX005 (iv), vehicle: water): 111 % of control | T/C (dose: 800.0 mg/kg/injection, schedule: Q01DX009 (ip), vehicle: water): 164 % of control | T/C (dose: 800.0 mg/kg/injection, schedule: Q01DX009 (oral), vehicle: water): 90 % of control | T/C (dose: 800.0 mg/kg/injection, schedule: Q03HX009 (ip), vehicle: water): 167 % of control | T/C (dose: 800.0 mg/kg/injection, schedule: Q03HX009 (oral), vehicle: water): 105 % of control | T/C (dose: 800.0 mg/kg/injection, schedule: Q03HX015 (oral), vehicle: water): 100 % of control | T/C (dose: 800.0 mg/kg/injection, schedule: Q03HX016 (ip), vehicle: water): 260 % of control | T/C (dose: 800.0 mg/kg/injection, schedule: Q08DX002 (ip), vehicle: water): 124 % of control | T/C (dose: 1600.0 mg/kg/injection, schedule: Q01DX009 (oral), vehicle: water): 99 % of control | T/C (dose: 1600.0 mg/kg/injection, schedule: Q03HX009 (ip), vehicle: water): 197 % of control | T/C (dose: 1600.0 mg/kg/injection, schedule: Q03HX009 (oral), vehicle: water): 98 % of control | T/C (dose: 1600.0 mg/kg/injection, schedule: Q03HX015 (oral), vehicle: water): 100 % of control | T/C (dose: 3200.0 mg/kg/injection, schedule: Q03HX009 (oral), vehicle: water): 96 % of control | T/C (dose: 3200.0 mg/kg/injection, schedule: Q03HX015 (oral), vehicle: water): 102 % of control

C=C1C(=O)C23C(OC(=O)CCC)C1CCC2C12COC3(O)C(O)C1C(C)(C)CCC2O (centres undefined)
T/C (dose: 3.75 mg/kg/injection, schedule: Q01DX009 (ip), vehicle: saline with Tween-80): 102 % of control | T/C (dose: 7.5 mg/kg/injection, schedule: Q01DX009 (ip), vehicle: saline with Tween-80): 101 % of control | T/C (dose: 15.0 mg/kg/injection, schedule: Q01DX009 (ip), vehicle: saline with Tween-80): 107 % of control | T/C (dose: 30.0 mg/kg/injection, schedule: Q01DX009 (ip), vehicle: saline with Tween-80): 111 % of control

O=C(Nc1ccc(Cl)cc1)Nc1nnc2nc(CC(=O)c3cccc([N+](=O)[O-])c3Cl)c(=O)[nH]n12
T/C [1]: 99 % of control | T/C [2]: 101 % of control | T/C [3]: 100 % of control

c1ccc(OCc2cn[nH]n2)cc1
T/C [1]: 100 % of control | T/C [2]: 103 % of control | T/C [3]: 100 % of control

COC(=O)C1(C)CCCC2(C)c3cc(OC)ccc3C3(CC12)OCCO3 (centres undefined)
T/C (dose: 5.0 mg/kg/injection, schedule: Q01DX009 (ip), vehicle: saline): 98 % of control | T/C (dose: 10.0 mg/kg/injection, schedule: Q01DX009 (ip), vehicle: saline): 95 % of control | T/C (dose: 20.0 mg/kg/injection, schedule: Q01DX009 (ip), vehicle: saline): 89 % of control

C1CCC2(CC1)N=C1CCCCC1S2 (centres undefined)
T/C (dose: 6.25 mg/kg/injection, schedule: Q01DX005 (ip), vehicle: saline + Tween-80 + alcohol): 106 % of control | T/C (dose: 12.5 mg/kg/injection, schedule: Q01DX005 (ip), vehicle: saline + Tween-80 + alcohol): 98 % of control | T/C (dose: 25.0 mg/kg/injection, schedule: Q01DX005 (ip), vehicle: saline + Tween-80 + alcohol): 104 % of control

O=C(CNC(=O)NCc1ccco1)NNC(=O)Nc1ccc(Cl)c([N+](=O)[O-])c1
T/C [1]: 95 % of control | T/C [2]: 94 % of control | T/C [3]: 97 % of control

CC1SC(C)C1O (centres undefined)
T/C (dose: 60.0 mg/kg/injection, schedule: Q01DX005 (ip), vehicle: saline): 104 % of control | T/C (dose: 120.0 mg/kg/injection, schedule: Q01DX005 (ip), vehicle: saline): 108 % of control | T/C (dose: 240.0 mg/kg/injection, schedule: Q01DX005 (ip), vehicle: saline): 93 % of control
